According to patent publication US8853203B2, “Diazepinone derivatives” (Novartis AG, priority 2012, dated 2014):

Key:
human mGluR5a receptors = human mGluR5a receptors (Homo sapiens (Human), UniProt P41594); assay: inhibition of glutamate-induced elevation of intracellular calcium in L(tk-) cells expressing human mGluR5a; format: cell-based; details: for IC50: glutamate-induced intracellular calcium elevation, L(tk-) cells expressing human mGluR5a, read-out: mGluR5 IC50
In short: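 Compounds tested for inhibition of the glutamate-induced rise in intracellular calcium concentration in L(tk-) cells stably expressing human mGluR5a.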

human mGluR1 = human mGluR1 (Homo sapiens (Human), UniProt Q13255); assay: mGluR1 antagonism, L-glutamate induced intracellular calcium increase (FLIPR) in CHO cells stably expressing human mGluR1; format: cell-based; details: for inhibition at 10 µM: CHO; for IC50: L-glutamate induced intracellular calcium, CHO cells expressing human mGluR1, FLIPR
Chain of human mGluR1 (Q13255 19-1194): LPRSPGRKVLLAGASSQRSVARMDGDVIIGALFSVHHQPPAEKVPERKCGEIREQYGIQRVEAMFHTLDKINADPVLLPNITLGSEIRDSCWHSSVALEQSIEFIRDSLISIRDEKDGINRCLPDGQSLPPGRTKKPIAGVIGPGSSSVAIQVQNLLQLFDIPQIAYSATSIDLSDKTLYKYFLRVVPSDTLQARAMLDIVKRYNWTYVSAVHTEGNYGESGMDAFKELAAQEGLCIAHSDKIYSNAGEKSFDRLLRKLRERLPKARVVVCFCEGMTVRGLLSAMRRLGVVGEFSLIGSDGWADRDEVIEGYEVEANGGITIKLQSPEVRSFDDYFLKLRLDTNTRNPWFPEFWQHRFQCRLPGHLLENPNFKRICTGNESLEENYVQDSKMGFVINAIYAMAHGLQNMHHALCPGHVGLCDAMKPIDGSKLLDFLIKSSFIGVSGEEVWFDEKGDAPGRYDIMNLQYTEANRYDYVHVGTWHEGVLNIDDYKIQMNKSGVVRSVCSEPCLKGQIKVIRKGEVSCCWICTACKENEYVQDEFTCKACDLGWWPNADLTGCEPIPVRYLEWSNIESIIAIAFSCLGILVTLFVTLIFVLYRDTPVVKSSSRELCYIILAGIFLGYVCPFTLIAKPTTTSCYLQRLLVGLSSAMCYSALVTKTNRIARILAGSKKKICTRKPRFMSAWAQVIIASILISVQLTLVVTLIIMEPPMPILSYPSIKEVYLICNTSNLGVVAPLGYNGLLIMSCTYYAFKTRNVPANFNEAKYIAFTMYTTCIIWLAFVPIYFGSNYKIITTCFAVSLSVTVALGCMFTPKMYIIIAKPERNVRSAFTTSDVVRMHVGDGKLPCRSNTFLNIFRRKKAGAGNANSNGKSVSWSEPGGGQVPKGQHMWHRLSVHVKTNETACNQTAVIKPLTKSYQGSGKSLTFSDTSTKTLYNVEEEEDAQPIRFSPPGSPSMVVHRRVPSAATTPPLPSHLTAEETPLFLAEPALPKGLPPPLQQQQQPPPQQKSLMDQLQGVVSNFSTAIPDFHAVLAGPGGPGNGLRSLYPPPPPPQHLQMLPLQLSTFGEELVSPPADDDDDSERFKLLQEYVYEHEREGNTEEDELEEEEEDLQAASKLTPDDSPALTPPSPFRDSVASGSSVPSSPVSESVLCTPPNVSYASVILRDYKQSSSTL

Chain of human mGluR5a receptors (P41594 other isoform, or with tags, fused parts or gaps): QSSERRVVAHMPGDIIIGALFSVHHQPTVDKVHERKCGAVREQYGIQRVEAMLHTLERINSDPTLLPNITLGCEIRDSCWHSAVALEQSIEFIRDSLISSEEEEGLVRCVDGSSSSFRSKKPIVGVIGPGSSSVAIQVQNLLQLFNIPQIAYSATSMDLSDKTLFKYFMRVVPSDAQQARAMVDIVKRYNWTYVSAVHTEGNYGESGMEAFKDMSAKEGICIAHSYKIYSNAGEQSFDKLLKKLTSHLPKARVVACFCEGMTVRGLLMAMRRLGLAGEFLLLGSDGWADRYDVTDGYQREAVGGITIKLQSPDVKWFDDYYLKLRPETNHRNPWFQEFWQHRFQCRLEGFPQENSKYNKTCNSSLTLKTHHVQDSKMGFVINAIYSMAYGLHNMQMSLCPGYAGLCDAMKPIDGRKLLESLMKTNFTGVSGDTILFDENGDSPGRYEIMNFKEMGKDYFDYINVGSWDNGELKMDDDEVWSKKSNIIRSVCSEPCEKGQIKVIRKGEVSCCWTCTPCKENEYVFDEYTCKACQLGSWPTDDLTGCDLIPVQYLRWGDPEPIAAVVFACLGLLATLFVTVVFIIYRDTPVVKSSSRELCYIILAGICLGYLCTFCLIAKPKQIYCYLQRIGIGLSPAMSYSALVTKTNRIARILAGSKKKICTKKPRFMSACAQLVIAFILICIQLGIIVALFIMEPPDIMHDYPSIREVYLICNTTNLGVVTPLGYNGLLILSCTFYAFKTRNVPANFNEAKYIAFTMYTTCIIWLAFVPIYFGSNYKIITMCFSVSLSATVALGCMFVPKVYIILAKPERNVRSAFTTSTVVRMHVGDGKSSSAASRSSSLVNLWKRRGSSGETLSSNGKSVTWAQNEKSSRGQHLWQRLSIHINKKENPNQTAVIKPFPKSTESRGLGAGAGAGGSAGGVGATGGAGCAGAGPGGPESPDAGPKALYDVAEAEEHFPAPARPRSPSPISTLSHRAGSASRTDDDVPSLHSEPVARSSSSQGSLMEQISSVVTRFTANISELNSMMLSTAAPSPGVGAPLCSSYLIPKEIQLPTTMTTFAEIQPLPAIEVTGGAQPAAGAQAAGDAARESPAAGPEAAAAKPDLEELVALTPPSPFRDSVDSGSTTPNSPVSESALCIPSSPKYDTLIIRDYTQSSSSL

inhibition at 10 µM (human mGluR5a receptors; LTK, read-out: mGluR5 % inhibition at 10 μM)	inhibition at 10 µM (human mGluR1)	IC50 (human mGluR5a receptors)	IC50 (human mGluR1)	Compound
27%	15%			COc1cccc2c1CCN1C(=O)CN=C(c3cc[nH]c(=O)c3)C=C21 [Example 60, 9-methoxy-2-(2-oxo-1,2-dihydropyridin-4-yl)-7,8-dihydro-[1,4]diazepino[7,1-a]isoquinolin-5(4H)-one]
		7 nM	3210 nM	CO[C@H](C)c1cn(C2=NCC(=O)N3CCc4c(C5CC5)ccc(F)c4C3=C2)cn1 [Example 99j, (R)-9-cyclopropyl-12-fluoro-2-(4-(1-methoxyethyl)-1H-imidazol-1-yl)-7,8-dihydro-[1,4]diazepino[7,1-a]isoquinolin-5(4H)-one]
		9 nM	220 nM	COCc1cn(C2=NCC(=O)N3CCc4c(cccc4C4CCC4)C3=C2)cn1 [Example 91, 9-cyclobutyl-2-(4-(methoxymethyl)-1H-imidazol-1-yl)-7,8-dihydro-[1,4]diazepino[7,1-a]isoquinolin-5(4H)-one]
		829 nM	> 10000 nM	O=C1CN=C(n2cnc(C3CC3)n2)C=C2c3cccc(-c4cc(F)ccn4)c3CCN12 [Example 135, 2-(3-cyclopropyl-1H-1,2,4-triazol-1-yl)-9-(4-fluoropyridin-2-yl)-7,8-dihydro-[1,4]diazepino[7,1-a]isoquinolin-5(4H)-one]
		347 nM	> 2000 nM	COc1ccc(-c2cccc3c2CCN2C(=O)CN=C(n4cnc(C5CC5)c4)C=C32)cn1 [Example 99d, 2-(4-cyclopropyl-1H-imidazol-1-yl)-9-(6-methoxypyridin-3-yl)-7,8-dihydro-[1,4]diazepino[7,1-a]isoquinolin-5(4H)-one]
		3500 nM	> 10000 nM	CC(C)c1cn(C2=NCC(=O)N3CCc4c(cccc4-c4nccn4C)C3=C2)cn1 [Example 73, 2-(4-isopropyl-1H-imidazol-1-yl)-9-(1-methyl-1H-imidazol-2-yl)-7,8-dihydro-[1,4]diazepino[7,1-a]isoquinolin-5(4H)-one]
	73%	32 nM		COCc1cn(C2=NCC(=O)N3CCc4c(cccc4-c4ncc(C)s4)C3=C2)cn1 [Example 77]
		205 nM	> 10000 nM	O=C1CN=C(n2cnc(Cl)c2)C=C2c3cccc(-c4cncc(F)c4)c3CCN12 [Example 83, 2-(4-chloro-1H-imidazol-1-yl)-9-(5-fluoropyridin-3-yl)-7,8-dihydro-[1,4]diazepino[7,1-a]isoquinolin-5(4H)-one]
		2 nM	702 nM	O=C1CN=C(n2cnc(C(F)F)c2)C=C2c3cccc(C4CC4)c3CCN12 [Example 99l, 9-cyclopropyl-2-(4-(difluoromethyl)-1H-imidazol-1-yl)-7,8-dihydro-[1,4]diazepino[7,1-a]isoquinolin-5(4H)-one]
		1 nM	2340 nM	O=C1CN=C(n2cnc(-c3ccno3)c2)C=C2c3cccc(C4CC4)c3CCN12 [Example 123b, 9-cyclopropyl-2-(4-(isoxazol-5-yl)-1H-imidazol-1-yl)-7,8-dihydro-[1,4]diazepino[7,1-a]isoquinolin-5(4H)-one]
		150 nM	1400 nM	COc1cccc(C2=NCC(=O)N3CCc4c(I)cccc4C3=C2)c1 [Example 30, 9-iodo-2-(3-methoxyphenyl)-7,8-dihydro-[1,4]diazepino[7,1-a]isoquinolin-5(4H)-one]
		167 nM	1300 nM	Cn1ccc(C2=NCC(=O)N3CCc4c(I)cccc4C3=C2)n1 [Example 31, 9-iodo-2-(1-methyl-1H-pyrazol-3-yl)-7,8-dihydro-[1,4]diazepino[7,1-a]isoquinolin-5(4H)-one]
		88 nM	> 6000 nM	O=C1CN=C(n2cnc(C3CC3)n2)C=C2c3ccc(F)c(-c4cccnc4F)c3CCN12 [Example 99q, 2-(3-cyclopropyl-1H-1,2,4-triazol-1-yl)-10-fluoro-9-(2-fluoropyridin-3-yl)-7,8-dihydro-[1,4]diazepino[7,1-a]isoquinolin-5(4H)-one]
